Measurements taken from patent US12497663B2, “Method of monitoring treatment” (LDN Pharma Limited, priority 2019, dated 2025).

Experiments:
[1] = system: CD3+/CD8+ cells (killer T-cells); assay: CD69 expression of PBMCs cultured with LDN or NTX (flow cytometry); assay type: cell-based; details: 48 h
Procedure: Peripheral-blood mononuclear cells were isolated from whole blood or from the residue product of leukoreduction of whole blood from pathologically healthy donors using Histopaque-1077. The mononuclear fraction was harvested and red blood cell contamination removed by incubation in hypotonic ammonium chloride. Cells were washed in phosphate buffered saline (PBS) and platelet contamination removed by centrifugation at 200 g for 10 min, re-suspended at a concentration of 1×10^6 ml in RPMI-1640 culture medium. […] Peripheral-blood mononuclear cells were washed twice in wash buffer (PBS containing 1% (v/v) FBS and 0.09% (v/v) NaN3), and stained for 30 min at 4° C. with the relevant and stated antibodies for assessment of immune cell profile. Cells were washed in wash buffer and fixed in 4% paraformaldehyde for 20 min at 4° C. Expressions of the surface markers were analysed using a BD Science LSR II Flow Cytometer with dedicated proprietary software.
The activation state of CD3+ cells is indicated by CD69 expression; higher levels of CD69 expression correlate with increased CD3+ activation. CD3+ cells are T cell co-receptors that help to activate both the cytotoxic T cell (CD8+ naive T cells) and also T helper cells (CD4+ naive T cells). […] Thus, when LDN has completed its priming and the gene expressions are as determined in Example 1, the immune system is suitably boosted.

[2] = system: CD3+ cells; assay: Gene expression in CD3+ cells from CD14-ve PBMCs cultured with naltrexone (Illumina biochips); assay type: cell-based, human; details: 4 h
Procedure: The RNA was then extracted from the cells using Trizol then isopropanol. The expression of the genes was measured using Illumina platform with biochips surveying the total human genome. […] The ratio of treated:untreated was calculated and the 25% change from untreated considered relevant.

SMILES: O=C1CC[C@@]2(O)[C@H]3Cc4ccc(O)c5c4[C@@]2(CCN3CC2CC2)[C@H]1O5 [NTX, morphinan-6-one,17-(cyclopropylmethyl)-4,5-epoxy-3,14-dihydroxy-(5a)]
- CD69 expression in CD3+/CD8+ cells ([1]; 10 nM naltrexone (LDN)): increased
- CD69 expression in CD3+/CD8+ cells ([1]; 10 uM naltrexone (NTX)): did not increase
- number of genes upregulated by LDN but unchanged by NTX ([2]; 10 nM LDN vs 10 uM NTX, 19,571 genes called present, 25% change relevant): 223 genes
- ACTB expression, LDN ([2]; 10 nM naltrexone (LDN)): 156
- ALDH4A1 expression, LDN ([2]; 10 nM naltrexone (LDN)): 135
- ASAP1 expression, LDN ([2]; 10 nM naltrexone (LDN)): 97
- BCLAF1 expression, LDN ([2]; 10 nM naltrexone (LDN)): 130
- BIRC3 expression, LDN ([2]; 10 nM naltrexone (LDN)): 173
- CASZ1 expression, LDN ([2]; 10 nM naltrexone (LDN)): 167
- CDC42SE2 expression, LDN ([2]; 10 nM naltrexone (LDN)): 119
- CDKN2AIP expression, LDN ([2]; 10 nM naltrexone (LDN)): 93
- DRAP1 expression, LDN ([2]; 10 nM naltrexone (LDN)): 309
- DYNLL2 expression, LDN ([2]; 10 nM naltrexone (LDN)): 93
- EIF2S3 expression, LDN ([2]; 10 nM naltrexone (LDN)): 135
- EIF3E expression, LDN ([2]; 10 nM naltrexone (LDN)): 427
- EIF4B expression, LDN ([2]; 10 nM naltrexone (LDN)): 594
- EZR expression, LDN ([2]; 10 nM naltrexone (LDN)): 1218
- FRG1 expression, LDN ([2]; 10 nM naltrexone (LDN)): 99
- H3F3A expression, LDN ([2]; 10 nM naltrexone (LDN)): 616
- HIST1H4C expression, LDN ([2]; 10 nM naltrexone (LDN)): 1093
- HPCAL1 expression, LDN ([2]; 10 nM naltrexone (LDN)): 491
- ITGB2 expression, LDN ([2]; 10 nM naltrexone (LDN)): 719
- KCTD6 expression, LDN ([2]; 10 nM naltrexone (LDN)): 105
- LSM5 expression, LDN ([2]; 10 nM naltrexone (LDN)): 166
- MAP4K1 expression, LDN ([2]; 10 nM naltrexone (LDN)): 475
- MORF4L1 expression, LDN ([2]; 10 nM naltrexone (LDN)): 135
- MTF1 expression, LDN ([2]; 10 nM naltrexone (LDN)): 84
- MYLK expression, LDN ([2]; 10 nM naltrexone (LDN)): 166
- NUCB1 expression, LDN ([2]; 10 nM naltrexone (LDN)): 436
- OR10A6 expression, LDN ([2]; 10 nM naltrexone (LDN)): 152
- PAH expression, LDN ([2]; 10 nM naltrexone (LDN)): 135
- PDCD4 expression, LDN ([2]; 10 nM naltrexone (LDN)): 83
- PECI expression, LDN ([2]; 10 nM naltrexone (LDN)): 85
- PRPF8 expression, LDN ([2]; 10 nM naltrexone (LDN)): 464
- PSME2 expression, LDN ([2]; 10 nM naltrexone (LDN)): 144
- PVRL2 expression, LDN ([2]; 10 nM naltrexone (LDN)): 151
- RASAL3 expression, LDN ([2]; 10 nM naltrexone (LDN)): 356
- S100A6 expression, LDN ([2]; 10 nM naltrexone (LDN)): 240
- SH3BGRL3 expression, LDN ([2]; 10 nM naltrexone (LDN)): 327
- SPOCK2 expression, LDN ([2]; 10 nM naltrexone (LDN)): 1322
- WDR75 expression, LDN ([2]; 10 nM naltrexone (LDN)): 81
- YWHAZ expression, LDN ([2]; 10 nM naltrexone (LDN)): 809
- ACTB L/U-score ([2]; 10 nM naltrexone): U (increase)
- ALDH4A1 L/U-score ([2]; 10 nM naltrexone): U (increase)
- ASAP1 L/U-score ([2]; 10 nM naltrexone): D (reduction)
- BCLAF1 L/U-score ([2]; 10 nM naltrexone): D (reduction)
- BIRC3 L/U-score ([2]; 10 nM naltrexone): D (reduction)
- CASZ1 L/U-score ([2]; 10 nM naltrexone): U (increase)
- CDC42SE2 L/U-score ([2]; 10 nM naltrexone): D (reduction)
- CDKN2AIP L/U-score ([2]; 10 nM naltrexone): D (reduction)
- DRAP1 L/U-score ([2]; 10 nM naltrexone): U (increase)
- DYNLL2 L/U-score ([2]; 10 nM naltrexone): D (reduction)
- EIF2S3 L/U-score ([2]; 10 nM naltrexone): D (reduction)
- EIF3E L/U-score ([2]; 10 nM naltrexone): D (reduction)
- EIF3M L/U-score ([2]; 10 nM naltrexone): D (reduction)
- EIF4B L/U-score ([2]; 10 nM naltrexone): U (increase)
- EZR L/U-score ([2]; 10 nM naltrexone): U (increase)
- FRG1 L/U-score ([2]; 10 nM naltrexone): D (reduction)
- H3F3A L/U-score ([2]; 10 nM naltrexone): D (reduction)
- HIST1H4C L/U-score ([2]; 10 nM naltrexone): D (reduction)
- HPCAL1 L/U-score ([2]; 10 nM naltrexone): U (increase)
- ITGB2 L/U-score ([2]; 10 nM naltrexone): U (increase)
- KCTD6 L/U-score ([2]; 10 nM naltrexone): D (reduction)
- LSM5 L/U-score ([2]; 10 nM naltrexone): D (reduction)
- MAP4K1 L/U-score ([2]; 10 nM naltrexone): U (increase)
- MORF4L1 L/U-score ([2]; 10 nM naltrexone): D (reduction)
- MTF1 L/U-score ([2]; 10 nM naltrexone): D (reduction)
- MYLK L/U-score ([2]; 10 nM naltrexone): U (increase)
- NUCB1 L/U-score ([2]; 10 nM naltrexone): U (increase)
- OR10A6 L/U-score ([2]; 10 nM naltrexone): U (increase)
- PAH L/U-score ([2]; 10 nM naltrexone): U (increase)
- PDCD4 L/U-score ([2]; 10 nM naltrexone): D (reduction)
- PECI L/U-score ([2]; 10 nM naltrexone): D (reduction)
- PRPF8 L/U-score ([2]; 10 nM naltrexone): U (increase)
- PSME2 L/U-score ([2]; 10 nM naltrexone): D (reduction)
- PVRL2 L/U-score ([2]; 10 nM naltrexone): U (increase)
- RASAL3 L/U-score ([2]; 10 nM naltrexone): U (increase)
- S100A6 L/U-score ([2]; 10 nM naltrexone): U (increase)
- SH3BGRL3 L/U-score ([2]; 10 nM naltrexone): U (increase)
- SPOCK2 L/U-score ([2]; 10 nM naltrexone): U (increase)
- WDR75 L/U-score ([2]; 10 nM naltrexone): D (reduction)
- YWHAZ L/U-score ([2]; 10 nM naltrexone): U (increase)
- ACTB expression, NTX ([2]; 10 uM naltrexone (NTX)): 124
- ALDH4A1 expression, NTX ([2]; 10 uM naltrexone (NTX)): 95
- ASAP1 expression, NTX ([2]; 10 uM naltrexone (NTX)): 114
- BCLAF1 expression, NTX ([2]; 10 uM naltrexone (NTX)): 159
- BIRC3 expression, NTX ([2]; 10 uM naltrexone (NTX)): 226
- CASZ1 expression, NTX ([2]; 10 uM naltrexone (NTX)): 107
- CDC42SE2 expression, NTX ([2]; 10 uM naltrexone (NTX)): 161
- CDKN2AIP expression, NTX ([2]; 10 uM naltrexone (NTX)): 101
- DRAP1 expression, NTX ([2]; 10 uM naltrexone (NTX)): 178
- DYNLL2 expression, NTX ([2]; 10 uM naltrexone (NTX)): 115
- EIF2S3 expression, NTX ([2]; 10 uM naltrexone (NTX)): 146
- EIF3E expression, NTX ([2]; 10 uM naltrexone (NTX)): 601
- EIF3M expression, NTX ([2]; 10 uM naltrexone (NTX)): 131
- EIF4B expression, NTX ([2]; 10 uM naltrexone (NTX)): 423
- EZR expression, NTX ([2]; 10 uM naltrexone (NTX)): 841
- FRG1 expression, NTX ([2]; 10 uM naltrexone (NTX)): 124
- H3F3A expression, NTX ([2]; 10 uM naltrexone (NTX)): 739
- HIST1H4C expression, NTX ([2]; 10 uM naltrexone (NTX)): 1370
- HPCAL1 expression, NTX ([2]; 10 uM naltrexone (NTX)): 275
- ITGB2 expression, NTX ([2]; 10 uM naltrexone (NTX)): 443
- KCTD6 expression, NTX ([2]; 10 uM naltrexone (NTX)): 116
- LSM5 expression, NTX ([2]; 10 uM naltrexone (NTX)): 218
- MAP4K1 expression, NTX ([2]; 10 uM naltrexone (NTX)): 267
- MORF4L1 expression, NTX ([2]; 10 uM naltrexone (NTX)): 149
- MTF1 expression, NTX ([2]; 10 uM naltrexone (NTX)): 95
- MYLK expression, NTX ([2]; 10 uM naltrexone (NTX)): 124
- NUCB1 expression, NTX ([2]; 10 uM naltrexone (NTX)): 337
- OR10A6 expression, NTX ([2]; 10 uM naltrexone (NTX)): 120
- PAH expression, NTX ([2]; 10 uM naltrexone (NTX)): 95
- PDCD4 expression, NTX ([2]; 10 uM naltrexone (NTX)): 96
- PECI expression, NTX ([2]; 10 uM naltrexone (NTX)): 131
- PRPF8 expression, NTX ([2]; 10 uM naltrexone (NTX)): 353
- PSME2 expression, NTX ([2]; 10 uM naltrexone (NTX)): 180
- PVRL2 expression, NTX ([2]; 10 uM naltrexone (NTX)): 113
- RASAL3 expression, NTX ([2]; 10 uM naltrexone (NTX)): 186
- S100A6 expression, NTX ([2]; 10 uM naltrexone (NTX)): 112
- SH3BGRL3 expression, NTX ([2]; 10 uM naltrexone (NTX)): 271
- WDR75 expression, NTX ([2]; 10 uM naltrexone (NTX)): 95
